# Where a name gives a salt, the structure may show the parent alone.
# Target: T1, mGlyT-1b (Mus musculus, UniProt P28571)
# T1 construct: host or cells: Flp-in-CHO
# T1 sequence (P28571 1-651 isoform P28571-2): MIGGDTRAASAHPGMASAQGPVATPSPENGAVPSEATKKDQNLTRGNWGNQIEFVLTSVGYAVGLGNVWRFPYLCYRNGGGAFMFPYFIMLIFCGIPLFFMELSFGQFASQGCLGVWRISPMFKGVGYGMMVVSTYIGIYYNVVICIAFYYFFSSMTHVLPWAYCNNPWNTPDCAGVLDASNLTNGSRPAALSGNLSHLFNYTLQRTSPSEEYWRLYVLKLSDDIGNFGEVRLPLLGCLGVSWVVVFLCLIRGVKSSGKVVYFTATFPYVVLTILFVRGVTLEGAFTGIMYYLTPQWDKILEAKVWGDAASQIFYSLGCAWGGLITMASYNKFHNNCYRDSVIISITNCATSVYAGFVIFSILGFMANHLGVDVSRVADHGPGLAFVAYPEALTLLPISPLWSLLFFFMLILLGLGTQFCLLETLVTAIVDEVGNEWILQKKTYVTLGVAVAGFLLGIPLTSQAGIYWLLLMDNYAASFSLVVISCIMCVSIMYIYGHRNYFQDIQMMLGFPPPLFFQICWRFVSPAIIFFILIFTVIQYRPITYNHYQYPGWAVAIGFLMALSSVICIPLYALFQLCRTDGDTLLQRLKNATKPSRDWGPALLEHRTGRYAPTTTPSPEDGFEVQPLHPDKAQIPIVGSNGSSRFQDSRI
# Experiment: Glycine uptake inhibition assay (mGlyT-1b)
# Assay type: cell-based
# Settings: [3H]-glycine uptake, Flp-in-CHO cells stably transfected with mGlyT1b cDNA, 20 min preincubation at 22° C.
# Protocol: Nutrient mixture F-12 (Gibco Life-technologies), fetal bovine serum (FBS) 5%, (Gibco life technologies), Penicillin/Streptomycin 1% (Gibco life technologies), Hygromycin 0.6 mg/ml (Gibco life technologies), Glutamine 1 mM Gibco life technologies)
# 150 mM NaCl, 10 mM Hepes-Tris, pH 7.4, 1 mM CaCl2, 2.5 mM KCl, 2.5 mM MgSO4, 10 mM (+) D-glucose.
# Flp-in™-CHO (Invitrogen Cat n° R758-07) cells stably transfected with mGlyT1b cDNA.
# Glycine Uptake Inhibition Assay (mGlyT-1b)
# On day 1 mammalian cells, (Flp-in™-CHO), transfected with mGlyT-1b cDNA, were plated at the density of 40,000 cells/well in complete F-12 medium, without hygromycin in 96-well culture plates. On day 2, the medium was aspirated and the cells were washed twice with uptake buffer (UB). The cells were then incubated for 20 min at 22° C. with either (i) no potential competitor, (ii) 10 mM non-radioactive glycine, (iii) a concentration of a potential inhibitor. A range of concentrations of the potential inhibitor was used to generate data for calculating the concentration of inhibitor resulting in 50% of the effect (e.g. IC50, the concentration of the competitor inhibiting glycine uptake of 50%). A solution was then immediately added containing [^3H]-glycine 60 nM (11-16 Ci/mmol) and 25 μM non-radioactive glycine. The plates were incubated with gentle shaking and the reaction was stopped by aspiration of the mixture and washing (three times) with ice-cold UB. The cells were lysed with scintillation liquid, shaken 3 hours and the radioactivity in the cells was counted using a scintillation counter.
row,IC50 [nM],Compound
1,107,"COc1cc(C(F)(F)F)cc(SC)c1C(=O)NC1(c2cccc(C(F)(F)F)c2)CCCN(C)C1 (racemic) [Example 89, rac-2-Methoxy-6-methylsulfanyl-N-[1-methyl-3-(3-trifluoromethyl-phenyl)-piperidin-3-yl]-4-trifluoromethyl-benzamide]"
2,36.9,"CCc1cc(C(F)(F)F)ccc1C(=O)NC1(c2ccncc2)CCCN(C)C1 (racemic) [Example 72, rac-2-Ethyl-N-(1-methyl-1,4,5,6-tetrahydro-2H-[3,4′]bipyridinyl-3-yl)-4-trifluoromethyl-benzamide hydrochloride]"
3,59.3,"COc1cc(C(F)(F)F)cc(C(F)(F)F)c1C(=O)NC1(c2ccc(F)cc2)CCCN(C)C1 (racemic) [Example 26, rac-N-[3-(4-Fluoro-phenyl)-1-methyl-piperidin-3-yl]-2-methoxy-4,6-bis-trifluoromethyl-benzamide]"
4,30,"CN1CC(C)(C)CC(NC(=O)c2ccc(C(F)(F)F)cc2C2CC2)(c2ccccc2)C1 (racemic) [Example 83, rac-2-Cyclopropyl-4-trifluoromethyl-N-(1,5,5-trimethyl-3-phenyl-piperidin-3-yl)-benzamide]"
5,197,"COc1cc(C(F)(F)F)cc(SC)c1C(=O)NC1(c2ccccc2)CC(F)CN(C)C1 (racemic) [Example 48, rac-N-(5-Fluoro-1-methyl-3-phenyl-piperidin-3-yl)-2-methoxy-6-methylsulfanyl-4-trifluoromethyl-benzamide]"
6,29.3,"COc1cc(C(F)(F)F)cc(SC)c1C(=O)NC1(c2ccccc2)CCC2(CC2)N(C)C1 (racemic) [Example 105, rac-2-Methoxy-N-(4-methyl-6-phenyl-4-aza-spiro[2.5]oct-6-yl)-6-methylsulfanyl-4-trifluoromethyl-benzamide]"
7,113,"COc1cccc(C2(NC(=O)c3c(OC)cc(C(F)(F)F)cc3SC)CCCN(C)C2)c1 (racemic) [Example 91, rac-2-Methoxy-N-[3-(3-methoxy-phenyl)-1-methyl-piperidin-3-yl]-6-methylsulfanyl-4-trifluoromethyl-benzamide]"
8,59.6,"COc1cc(C(F)(F)F)cc(SC)c1C(=O)NC1(c2ccc(F)c(Cl)c2)CCCN(C)C1 (racemic) [Example 94, rac-N-[3-(3-Chloro-4-fluoro-phenyl)-1-methyl-piperidin-3-yl]-2-methoxy-6-methylsulfanyl-4-trifluoromethyl-benzamide]"
9,53.8,"COc1cc(C(F)(F)F)cc(SC)c1C(=O)N[C@@]1(c2ccccc2)C[C@H](OC)CN(C)C1 (stereo in doubt) [Example 75, 2-Methoxy-N-((3RS,5SR)-5-methoxy-1-methyl-3-phenyl-piperidin-3-yl)-6-methylsulfanyl-4-trifluoromethyl-benzamide]"
10,32.4,"COc1cc(C(F)(F)F)cc(SC)c1C(=O)N[C@]1(c2ccccc2)CC[C@H](C)N(C)C1 (single isomer, unassigned) [Example 117, N-((3S,6S) or (3R,6R)-1,6-Dimethyl-3-phenyl-piperidin-3-yl)-2-methoxy-6-methylsulfanyl-4-trifluoromethyl-benzamide]"
11,129,"COc1cc(C(F)(F)F)cc(SC)c1C(=O)NC1(c2ccc(F)cc2F)CCCN(C)C1 (racemic) [Example 67, rac-N-[3-(2,4-Difluoro-phenyl)-1-methyl-piperidin-3-yl]-2-methoxy-6-methylsulfanyl-4-trifluoromethyl-benzamide]"
12,62.2,"COc1cc(C(F)(F)F)cc(SC)c1C(=O)NC1(c2cc(F)cc(F)c2)CCCN(C)C1 (racemic) [Example 98, rac-N-[3-(3,5-Difluoro-phenyl)-1-methyl-piperidin-3-yl]-2-methoxy-6-methylsulfanyl-4-trifluoromethyl-benzamide]"
13,47.9,"COc1cc(C(F)(F)F)cc(SC)c1C(=O)NC1(c2cccc(F)c2)CCCN(C)C1 (racemic) [Example 93, rac-N-[3-(3-Fluoro-phenyl)-1-methyl-piperidin-3-yl]-2-methoxy-6-methylsulfanyl-4-trifluoromethyl-benzamide formic acid]"
14,117,"COc1cc(C(F)(F)F)cc(SC)c1C(=O)NC1(c2cc(F)ccc2F)CCCN(C)C1 (racemic) [Example 69, rac-N-[3-(2,5-Difluoro-phenyl)-1-methyl-piperidin-3-yl]-2-methoxy-6-methylsulfanyl-4-trifluoromethyl-benzamide]"
15,176,"CCc1cc(C(F)(F)F)ccc1C(=O)N[C@@]1(c2ccccc2)C[C@H](OC)CN(C)C1 (racemic) [Example 125, 2-Ethyl-N-((3R,5S) or (3S,5R)-5-methoxy-1-methyl-3-phenyl-piperidin-3-yl)-4-trifluoromethyl-benzamide]"
16,24.5,"COc1cc(C(F)(F)F)cc(SC)c1C(=O)NC1(c2cccc(Cl)c2)CCCN(C)C1 (racemic) [Example 45, rac-N-[3-(3-Chloro-phenyl)-1-methyl-piperidin-3-yl]-2-methoxy-6-methylsulfanyl-4-trifluoromethyl-benzamide hydrochloride]"
17,126,"CCc1cc(C(F)(F)F)cc(C(F)(F)F)c1C(=O)NC1(c2ccccc2)CCCN(C)C1 (racemic) [Example 25, rac-2-Ethyl-N-(1-methyl-3-phenyl-piperidin-3-yl)-4,6-bis-trifluoromethyl-benzamide]"
18,10.1,"COc1cc(C(F)(F)F)cc(SC)c1C(=O)N[C@@]1(c2ccccc2)CCCN(C)C1 (stereo in doubt) [Example 38, 2-Methoxy-N-((R)-1-methyl-3-phenyl-piperidin-3-yl)-6-methylsulfanyl-4-trifluoromethyl-benzamide hydrochloride]"
19,31.2,"CO[C@@H]1CN(C)C[C@](NC(=O)c2ccc(C(F)(F)F)cc2C2CC2)(c2ccccc2)C1 (racemic) [Example 126, 2-Cyclopropyl-N-((3R,5S) or (3S,5R)-5-methoxy-1-methyl-3-phenyl-piperidin-3-yl)-4-trifluoromethyl-benzamide]"
20,181,"COc1cc(C(F)(F)F)cc(SC)c1C(=O)NC1(c2ccc(F)cn2)CCCN(C)C1 (racemic) [Example 47, rac-N-(5-Fluoro-1′-methyl-1′,4′,5′,6′-tetrahydro-2′H-[2,3′]bipyridinyl-3′-yl)-2-methoxy-6-methylsulfanyl-4-trifluoromethyl-benzamide]"
21,12.7,"CCc1cc(C(F)(F)F)ccc1C(=O)N[C@@]1(c2ccccc2)C[C@H](C)CN(C)C1 (racemic) [Example 124, N-((3R,5S) or (3S,5R)-1,5-Dimethyl-3-phenyl-piperidin-3-yl)-2-ethyl-4-trifluoromethyl-benzamide]"
22,156,"COc1cc(C(F)(F)F)cc(SC)c1C(=O)NC1(C2CCCCC2)CCCN(C)C1 (racemic) [Example 58, rac-N-(3-Cyclohexyl-1-methyl-piperidin-3-yl)-2-methoxy-6-methylsulfanyl-4-trifluoromethyl-benzamide]"
23,25.3,"C[C@@H]1CN(C)C[C@](NC(=O)c2ccc(C(F)(F)F)cc2C2CC2)(c2ccccc2)C1 (racemic) [Example 82, 2-Cyclopropyl-N-((3RS,5SR)-1,5-dimethyl-3-phenyl-piperidin-3-yl)-4-trifluoromethyl-benzamide hydrochloride]"

# — US9067911B2, “Piperidine derivatives” (Hoffmann-La Roche Inc., priority 2009, dated 2015)
